Source: US20120065365A1, “Stable Radiopharmaceutical Compositions and Methods for Their Preparation” (BRACCO IMAGING S.P.A., priority 2003, published 2012)
Counter-ions that a name gives are not always drawn. Like-named read-outs stand apart in the source and are kept apart here.

Experiments:
[1] = assay type: physicochemical; details: stabilizer 5 mg/mL added after complex preparation; for RCP % t = 0 h: ^177Lu-A (3.34 mCi avg per aliquot), analysed 1-3.5 hrs after preparation; for RCP % t = 24 h: ^177Lu-A, room temperature
Method: In this study, sulfur-containing compounds were tested. Cysteine has been used as an antioxidant for many drugs that contain oxidizable residues.
Solutions of each individual stabilizer (10 mg/mL) were prepared in water. To a lead-shielded 4-mL vial was added 300 μL of NaOAc buffer (0.2M, pH 4.8), 29.0 mCi ^177LuCl3 and 41.4 μg COMPOUND A (dissolved in water). The ratio of COMPOUND A to Lutetium was 3:1. The reaction mixture was heated, cooled, treated with Na2EDTA.2H2O and analyzed by HPLC as described in Example 13. Seven 50-μL aliquots (3.34 mCi ^177Lu avg each) were transferred to individual HPLC vials. To one aliquot, 50 μL of water was added for use as a control sample (no stabilizer). To the other six aliquots, 50 μL of an individual stabilizer solution (0.5 mg of stabilizer) was added, and then each was analyzed by HPLC (Method 2). The control sample, and L-cysteine ethyl ester hydrochloride and L-cysteine methyl ester hydrochloride samples were analyzed again after 24 hours of storage at room temperature.

[2] = assay type: physicochemical
Method: The reaction vial was crimp-sealed and heated at 100° C. for 5 min. […] The sample was stored in an autosampler in which the temperature is ˜6° C. […] than room temperature, and analyzed by RP-HPLC for up to 24 hours.
L-Selenomethionine: ^177Lu-B was prepared, diluted and analyzed as described above, but 5 mg of L-Se-Met was used in place of PDTC, the heating time was 10 minutes, and the quantity of radioactivity used was 52 mCi.
L-cysteine ethyl ester, HCl: ^177Lu-B was prepared, diluted and analyzed as described above, but 5 mg of L-CEE, hydrochloride salt was used in place of PDTC, the heating time was 5 minutes and the quantity of radioactivity used was 50 mCi.
L-cysteine HCl.H2O: ^177Lu-B was prepared, diluted and analyzed as described above, but 5 mg of L-Cys HCl.H2O was used in place of PDTC, the heating time was 8 minutes and the quantity of radioactivity used was 53 mCi.

[3] = assay type: physicochemical; details: for RCP % t = 0 h: ^177Lu-A (4.80 mCi) prepared in presence of stabilizer 5 mg/mL; for RCP % t = 24 h / RCP % t = 48 h / RCP (%) t = 72 h: ^177Lu-A prepared in presence of stabilizer 5 mg/mL, room temperature
Method: Solutions of L-cysteine ethyl ester hydrochloride and L-cysteine methyl ester hydrochloride (5 mg/mL) were prepared by dissolving them in NaOAc buffer (0.2 M, pH 4.8). To lead-shielded 4-mL vials were added 200 μL of the individual NaOAc-stabilizer solutions, 4.80 mCi ^177LuCl3 and 7.26 μg COMPOUND A (dissolved in water). The ratio of COMPOUND A to Lutetium was 3:1 for all samples. The reaction mixtures were heated, cooled, treated with Na2EDTA.2H2O and analyzed by HPLC as described in Example 13, and then each was stored at room temperature for 72 hours. Each sample was analyzed by HPLC (Method 2) at t=0, 24, 48 and 72 h.

[4] = Radiostability (RCP, Met═O by HPLC) of preformed ^177Lu-A with individual amino acids added (Example 1); assay type: physicochemical; details: amino acid 6.6 mg/mL, room temperature
Method: (§1) The injection volume was 20 μL.
Solutions of the individual amino acids L-Methionine, L-Selenomethionine, L-cysteine HCl.H2O, L-Tryptophan, L-Histidine, and Glycine were prepared at a concentration of 10 mg/mL in 10 mM Dulbecco's phosphate-buffered saline, pH 7.0 [PBS].
The final radioactive concentration of each sample was ˜20 mCi/mL.

[5] = ^177Lu-A 50 mCi in 2 mL, room temperature
[6] = assay type: physicochemical; details: ^177Lu-A 13.9 mCi/mL, stabilizer 5 mg/mL added after complex preparation, room temperature
Method: as §1
Compounds containing the —C═S moiety [dithiocarbamates and ethionamide] were examined in this study.
Each individual stabilizer was prepared at a concentration of 10 mg/mL in water. Ethionamide was dissolved in EtOH. […] The reaction mixture was heated to 100° C. for 5 minutes, then cooled for 5 minutes in an ambient-temperature water bath. […] To an aliquot, 100 μL of one of the stabilizer solutions (1 mg of stabilizer) was added. Each aliquot was analyzed (t=0 h) by HPLC (Method 2) and stored at room temperature for 48 hours. All samples were analyzed again at t=24 h and 48 h.

[7] = assay type: physicochemical; remark: listed apart in the source
Method: as §1
Ethionamide was prepared at a 10 mg/mL concentration by dissolving it in EtOH. […] Another sample was prepared to which was added 100 μL of ethanol only (no stabilizer), for use as a control sample. […] The reaction mixture was heated to 100° C. for 5 minutes then cooled for 5 minutes in an ambient-temperature water bath. To each sample, 10 μL of 2% Na2EDTA.2H2O in water was added, and then each was analysed by HPLC (Method 2) and stored at room temperature for up to 96 hours.

[8] = assay type: physicochemical; remark: listed apart in the source
Method: The ratio of COMPOUND A to Lutetium was 3:1 for all samples. The reaction mixtures were heated, cooled, treated with Na2EDTA.2H2O and analyzed by HPLC as described in Example 13, and then stored at room temperature for 24 hours, at which time all samples were analyzed again.

**Q.** Which “RCP % t = 0 h” value [1] does the source give for N[C@@H](CS(=O)O)C(=O)O.O [L-cysteinesulfinic acid monohydrate] here?
**A.** 75.0%

**Q.** With CCOC(=O)[C@@H](N)CSSC[C@H](N)C(=O)OCC.Cl.Cl [L-cysteine diethyl ester dihydrochloride] as the compound, how does the “RCP % t = 0 h” value [1] read?
**A.** 61.5%

**Q.** For CCOC(=O)[C@@H](N)CS [L-cysteine ethyl ester hydrochloride], which “(% RCP) 3-h” value ([2]; ^177Lu-B (44-53 mCi) formulated with 5 mg stabilizing compound, 3 h) is on record?
**A.** 96.9%

**Q.** And the “(% RCP) 6-h” value ([2]; ^177Lu-B (44-53 mCi) formulated with 5 mg stabilizing compound, 6 h)?
**A.** 94.7%

**Q.** What about the “(% RCP) 9-h” value ([2]; ^177Lu-B (44-53 mCi) formulated with 5 mg stabilizing compound, 9 h) of the same compound?
**A.** 92.8%

**Q.** And the “(% RCP) 12-h” value ([2]; ^177Lu-B (44-53 mCi) formulated with 5 mg stabilizing compound, 12 h)?
**A.** 92.2%

**Q.** What about the “(% RCP) 24-h” value ([2]; ^177Lu-B (44-53 mCi) formulated with 5 mg stabilizing compound, 24 h) of the same compound?
**A.** 85.1%

**Q.** And the “(% RCP) 0-h” value ([2]; ^177Lu-B (44-53 mCi) formulated with 5 mg stabilizing compound, diluted to ~2 mL, ~6° C. above room temperature, 0 h)?
**A.** 98.4%

**Q.** And the “RCP Drop over 24 hr” value ([2]; ^177Lu-B formulated with 5 mg stabilizing compound, 0 to 24 h)?
**A.** 13.3%

**Q.** What about the “RCP % t = 0 h” value [1] of the same compound?
**A.** 91.5%

**Q.** And the “RCP % t = 24 h” value [1]?
**A.** 73.2%

**Q.** What about the “RCP % t = 0 h” value [3] of the same compound?
**A.** 100%

**Q.** And the “RCP % t = 24 h” value [3]?
**A.** 96.5%

**Q.** What about the “RCP % t = 48 h” value [3] of the same compound?
**A.** 93.5%

**Q.** What about the “RCP (%) t = 72 h” value [3] of the same compound?
**A.** 87.4%

**Q.** Which “0-1 h RCP (%)” value ([4]; ^177Lu-A ~20 mCi/mL (3.5 mCi total), 0-1 h) does the source give for CSCC[C@H](N)C(=O)O [L-Methionine] here?
**A.** 100%

**Q.** What about the “24-h RCP (%)” value ([4]; ^177Lu-A ~20 mCi/mL, 24 h) of the same compound?
**A.** 99.3%

**Q.** And the “48-h RCP (%)” value ([4]; ^177Lu-A ~20 mCi/mL, 48 h)?
**A.** 94%

**Q.** And the “% RCP 0-d” value ([5]; 2.5 mg/mL L-methionine (5 mg), 0 d)?
**A.** 96.1%

**Q.** And the “% RCP 1-d” value ([5]; 2.5 mg/mL L-methionine, 1 d)?
**A.** 53.5%

**Q.** What about the “% RCP 2-d” value ([5]; 2.5 mg/mL L-methionine, 2 d) of the same compound?
**A.** 26.9%

**Q.** And the “% RCP 5-d” value ([5]; 2.5 mg/mL L-methionine, 5 d)?
**A.** 0%

**Q.** Which “RCP % t = 0 h” value [1] does the source give for Cl.Cl.NCCSSCCN [Cystamine dihydrochloride] here?
**A.** 66.2%

**Q.** Which “RCP % t = 0 h” value [1] does the source give for COC(=O)[C@@H](N)CSSC[C@H](N)C(=O)OC.Cl.Cl here?
**A.** 70.1%

**Q.** With COC(=O)[C@@H](N)CS [L-cysteine methyl ester hydrochloride] as the compound, how does the “RCP % t = 0 h” value [1] read?
**A.** 90.4%

**Q.** What about the “RCP % t = 24 h” value [1] of the same compound?
**A.** 74.4%

**Q.** And the “RCP % t = 0 h” value [3]?
**A.** 100%

**Q.** What about the “RCP % t = 24 h” value [3] of the same compound?
**A.** 97.1%

**Q.** And the “RCP % t = 48 h” value [3]?
**A.** 93.7%

**Q.** What about the “RCP (%) t = 72 h” value [3] of the same compound?
**A.** 87.2%

**Q.** Which “RCP % t = 0 h” value ([6]; 0 h) does the source give for CCc1cc(C(N)=S)ccn1 [Ethionamide, 2-Ethyl-4-pyridinecarbothioamide (Ethionamide), reference compound] here?
**A.** 97.4%

**Q.** And the “RCP % t = 24 h” value ([6]; 24 h)?
**A.** 97.0%

**Q.** What about the “RCP % t = 48 h” value ([6]; 48 h) of the same compound?
**A.** 94.7%

**Q.** What about the “RCP % t = 0 h” value ([7]; ^177Lu-A (5.25 mCi avg) prepared in presence of stabilizer ~3.33 mg/mL, 0 h) of the same compound?
**A.** 100%

**Q.** What about the “RCP % t = 24 h” value ([7]; ^177Lu-A prepared in presence of stabilizer ~3.33 mg/mL, room temperature, 24 h) of the same compound?
**A.** 98.1%

**Q.** And the “RCP % t = 96 h” value ([7]; ^177Lu-A prepared in presence of stabilizer ~3.33 mg/mL, room temperature, 96 h)?
**A.** 94.6%

**Q.** And the “RCP % t = 0 h” value ([8]; ^177Lu-A (4.65-5.64 mCi) prepared in presence of stabilizer 5 mg/mL, 0 h)?
**A.** 80.8%

**Q.** What about the “RCP % t = 24 h” value ([8]; ^177Lu-A prepared in presence of stabilizer 5 mg/mL, room temperature, 24 h) of the same compound?
**A.** 77.5%
